Measured values reported in patent US7807701B2, “Dibenzylamine compounds and pharmaceutical use thereof” (Japan Tobacco Inc., priority 2002, dated 2010).
pIC50: −log10 of the molar value. Structures can show the parent of a compound that is named as a salt.

Molecular target: T1, CETP (Homo sapiens, UniProt P11597)
T1 construct: The donor lipoprotein obtained above was added to plasma of healthy subject; from tissue; host or cells: whole plasma of healthy subject
T1 sequence (P11597 18-493): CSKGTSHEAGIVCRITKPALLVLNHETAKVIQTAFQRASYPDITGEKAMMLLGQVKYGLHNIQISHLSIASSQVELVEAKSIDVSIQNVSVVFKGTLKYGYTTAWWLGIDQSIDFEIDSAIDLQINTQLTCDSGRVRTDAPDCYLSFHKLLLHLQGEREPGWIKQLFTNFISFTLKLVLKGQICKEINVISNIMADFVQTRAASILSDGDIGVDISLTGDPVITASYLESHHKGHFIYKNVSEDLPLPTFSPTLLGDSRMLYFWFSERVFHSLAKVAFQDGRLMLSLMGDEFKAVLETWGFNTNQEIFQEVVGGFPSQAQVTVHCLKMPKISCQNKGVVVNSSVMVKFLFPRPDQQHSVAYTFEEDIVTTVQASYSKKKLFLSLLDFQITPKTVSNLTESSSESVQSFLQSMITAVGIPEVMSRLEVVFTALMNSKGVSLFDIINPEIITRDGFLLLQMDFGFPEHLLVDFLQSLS
Assay: Inhibitory effect in vitro on CETP activity in total plasma
Format: biochemical
Details: plasma of healthy subject with [3H]CE-HDL3, 37° C., 4 hr; average values
Description: Potassium bromide (KBr) was added to plasma (40 mL) of healthy subject and the mixture was adjusted to have a specific density d=1.125 g/mL. The mixture was subjected to density gradient centrifugation (227,000×g, 4° C., 17 hr) and a fraction showing a specific density of d>1.125 g/mL (HDL3 fraction) was harvested. The obtained fraction was dialyzed against PBS solution [10 mmol/L Na2HPO4; 10 mmol/L NaH2PO4; 0.15 mol/L NaCl; […] (pH 7.4)]. Then, tritium-labeled cholesterol (37 MBq) was dissolved in 95% ethanol, gradually added to the above-mentioned HDL3 fraction with stirring and incubated at 37° C. for 18 hr. [By this operation, tritium-labeled cholesterol was esterified by the action of lecithin acyl transferase (LCAT) present on the HDL3 surface and taken up into HDL3 as tritium-labeled cholesteryl ester ([^3H]CE)]. After incubation, KBr was added, the mixture was adjusted to have a specific density d=1.21 g/mL, subjected to density gradient centrifugation (227,000×g, 4° C., 17 hr) and a fraction of specific density […] was harvested. The obtained fraction was dialyzed against the aforementioned PBS solution to give HDL3 incorporating [^3H]CE ([^3H]CE-HDL3, specific density: 1.125<d<1.21, specific activity: 10,000 dpm/μL), which was used as a donor lipoprotein.
The donor lipoprotein obtained above was added to plasma of healthy subject to prepare a [^3H]CE-HDL3-containing plasma (1,000 dpm/μL). The compound was dissolved in dimethyl formamide. A solution of the compound or a solvent alone (2 μL) and the [^3H]CE-HDL3-containing plasma (100 μL) were added into a microtube, and this was incubated at 37° C. or 4° C. for 4 hr. After ice-cooling, TBS solution [100 μL, 20 mmol/L Tris; 0.15 mol/L NaCl (pH 7.4)] containing 1 mol/L magnesium chloride and 2% dextran sulfate was added to each microtube and the mixture was thoroughly stirred. After keeping at 4° C. for 30 min, the mixture was centrifuged (10,000×g, 4° C., 10 min), and the radioactivity in the obtained supernatant (HDL fraction) was measured with a scintillation counter. […] The concentration of the compound necessary for inhibiting the CETP activity by 50% was calculated as an IC50 value.

| pIC50 | Structure (SMILES) |
| --- | --- |
| 6.64 | CCN(CC1CCCC1)c1cc2c(cc1CN(Cc1cc(C(F)(F)F)cc(C(F)(F)F)c1)c1nnn(C)n1)CCCC2 [Example 1, N-[3-(N′-cyclopentylmethyl-N′-ethylamino)-5,6,7,8-tetrahydronaphthalen-2-ylmethyl]-N-[3,5-bis(trifluoromethyl)benzyl]-(2-methyl-2H-tetrazol-5-yl)amine] |
| 7.10 | CCN(CC1CCCC1)c1cc2c(cc1CN(Cc1cc(C#N)cc(C(F)(F)F)c1)c1nnn(C)n1)CCCC2 [Example 2, 3-{[N-[3-(N′-cyclopentylmethyl-N′-ethylamino)-5,6,7,8-tetrahydronaphthalen-2-ylmethyl]-N-(2-methyl-2H-tetrazol-5-yl)amino]methyl}-5-trifluoromethylbenzonitrile] |
| 6.62 | CCN(CC1CCCC1)c1cc2c(cc1CN(Cc1cc(C(F)(F)F)cc(C(F)(F)F)c1)c1nnn(C)n1)CCC2 [Example 3, N-[3,5-bis(trifluoromethyl)benzyl]-N-[6-(N′-cyclopentylmethyl-N′-ethylamino)indan-5-ylmethyl]-(2-methyl-2H-tetrazol-5-yl)amine] |
| 6.74 | CCN(CC1CCCC1)c1cc2c(cc1CN(Cc1cc(C(F)(F)F)cc(C(F)(F)F)c1)c1nnn(C)n1)CCC2 [Example 4, N-[3,5-bis(trifluoromethyl)benzyl]-N-[6-(N′-cyclopentylmethyl-N′-ethylamino)indan-5-ylmethyl]-(2-methyl-2H-tetrazol-5-yl)amine hydrochloride] |
| 6.57 | CCN(CC1CCCC1)c1cc2c(cc1CN(Cc1cc(C(F)(F)F)cc(C(F)(F)F)c1)c1cc(C)[nH]n1)CCC2 [Example 7, N-[6-(N′-cyclopentylmethyl-N′-ethylamino)indan-5-ylmethyl]-N-[3,5-bis(trifluoromethyl)benzyl]-(5-methyl-1H-pyrazol-3-yl)amine] |
| 6.20 | CCN(CCCCC(=O)O)c1cc2c(cc1CN(Cc1cc(C(F)(F)F)cc(C(F)(F)F)c1)c1noc(C)n1)CCC2 [Example 8, 5-{N-(6-{[N′-[3,5-bis(trifluoromethyl)benzyl]-N′-(5-methyl-[1,2,4]oxadiazol-3-yl)amino]methyl}indan-5-yl)-N-ethylamino}pentanoic acid hydrochloride] |
| 6.64 | CCN(CC1CCCC1)c1cc2c(cc1CN(Cc1cc(C#N)cc(C(F)(F)F)c1)c1nnn(C)n1)CCC2 [Example 10, 3-{[N-[6-(N′-cyclopentylmethyl-N′-ethylamino)indan-5-ylmethyl]-N-(2-methyl-2H-tetrazol-5-yl)amino]methyl}-5-trifluoromethylbenzonitrile] |
| 6.20 | CCN(CC1CCCC1)c1cc2c(cc1CN(Cc1cc(C(F)(F)F)cc(C(F)(F)F)c1)c1nnn(CC)n1)CCC2 [Example 11, N-[3,5-bis(trifluoromethyl)benzyl]-N-[6-(N′-cyclopentylmethyl-N′-ethylamino)indan-5-ylmethyl]-(2-ethyl-2H-tetrazol-5-yl)amine] |
| 6.60 | CCN(CC1CCCC1)c1cc2c(cc1CN(Cc1cc(C(F)(F)F)cc(C(F)(F)F)c1)c1ncn(C)n1)CCC2 [Example 12, N-[3,5-bis(trifluoromethyl)benzyl]-N-[6-(N′-cyclopentylmethyl-N′-ethylamino)indan-5-ylmethyl]-(1-methyl-1H-[1,2,4]triazol-3-yl)amine] |
| 6.24 | CCN(CC1CCCC1)c1cc2c(cc1CN(Cc1cc(C#N)cc(C(F)(F)F)c1)c1ccccc1)CCC2 [Example 13, 3-({N-[6-(N′-cyclopentylmethyl-N′-ethylamino)indan-5-ylmethyl]-N-phenylamino}methyl)-5-trifluoromethylbenzonitrile] |
| 6.33 | CCN(CC1CCCC1)c1cc2c(cc1CN(Cc1cc(C(F)(F)F)cc(C(F)(F)F)c1)c1cc(C)no1)CCC2 [Example 26, N-[3,5-bis(trifluoromethyl)benzyl]-N-[6-(N′-cyclopentylmethyl-N′-ethylamino)indan-5-ylmethyl]-(3-methylisoxazol-5-yl)amine hydrochloride] |
| 6.24 | CCN(CC1CCCC1)c1cc2c(cc1CN(Cc1cc(C(F)(F)F)cc(C(F)(F)F)c1)c1ccn(C)n1)CCC2 [Example 27, N-[3,5-bis(trifluoromethyl)benzyl]-N-[6-(N′-cyclopentylmethyl-N′-ethylamino)indan-5-ylmethyl]-(1-methyl-1H-pyrazol-3-yl)amine hydrochloride] |
| 6.36 | CCN(CC1CCCC1)c1cc2c(cc1CN(Cc1cc(C(F)(F)F)cc(C(F)(F)F)c1)c1cnn(C)c1)CCC2 [Example 28, N-[3,5-bis(trifluoromethyl)benzyl]-N-[6-(N′-cyclopentylmethyl-N′-ethylamino)indan-5-ylmethyl]-(1-methyl-1H-pyrazol-4-yl)amine hydrochloride] |
| 6.25 | CCN(CC1CCCC1)c1ccc(C(F)(F)F)cc1CN(Cc1cc(C(F)(F)F)cc(C(F)(F)F)c1)c1nnn(C)n1 [Example 33, N-[3,5-bis(trifluoromethyl)benzyl]-N-[2-(N′-cyclopentylmethyl-N′-ethylamino)-5-trifluoromethylbenzyl]-(2-methyl-2H-tetrazol-5-yl)amine hydrochloride] |
| 6.66 | CCN(CC1CCCC1)c1ccc(C(F)(F)F)cc1CN(Cc1cc(C#N)cc(C(F)(F)F)c1)c1nnn(C)n1 [Example 34, 3-{[N-[2-(N′-cyclopentylmethyl-N′-ethylamino)-5-trifluoromethylbenzyl]-N-(2-methyl-2H-tetrazol-5-yl)amino]methyl}-5-trifluoromethylbenzonitrile hydrochloride] |
| 6.47 | CCN(CCCCC(=O)OC)c1cc2c(cc1CN(Cc1cc(C#N)cc(C(F)(F)F)c1)c1nnn(C)n1)CCC2.Cl [Example 36, hydrochloride] |
| 6.15 | CCN(C[C@H]1CC[C@H](C(=O)OC)CC1)c1cc2c(cc1CN(Cc1cc(C(F)(F)F)cc(C(F)(F)F)c1)c1ccn(C)n1)CCCC2 [Example 42, methyl trans-4-{[N-(3-{[N′-[3,5-bis(trifluoromethyl)benzyl]-N′-(1-methyl-1H-pyrazol-3-yl)amino]methyl}-5,6,7,8-tetrahydronaphthalen-2-yl)-N-ethylamino]methyl}cyclohexanecarboxylate hydrochloride] |
| 6.26 | CCN(C[C@H]1CC[C@H](C(=O)OC)CC1)c1cc2c(cc1CN(Cc1cc(C#N)cc(C(F)(F)F)c1)c1ccn(C)n1)CCCC2 [Example 43, methyl trans-4-{[N-(3-{[N′-(3-cyano-5-trifluoromethylbenzyl)-N′-(1-methyl-1H-pyrazol-3-yl)amino]methyl}-5,6,7,8-tetrahydronaphthalen-2-yl)-N-ethylamino]methyl}cyclohexanecarboxylate hydrochloride] |
| 6.44 | CCN(C[C@H]1CC[C@H](C(=O)O)CC1)c1cc2c(cc1CN(Cc1cc(C(F)(F)F)cc(C(F)(F)F)c1)c1ccn(C)n1)CCCC2 [Example 44, trans-4-{[N-(3-{[N′-[3,5-bis(trifluoromethyl)benzyl]-N′-(1-methyl-1H-pyrazol-3-yl)amino]methyl}-5,6,7,8-tetrahydronaphthalen-2-yl)-N-ethylamino]methyl}cyclohexanecarboxylic acid hydrochloride] |
| 6.31 | CCN(C[C@H]1CC[C@H](C(=O)O)CC1)c1cc2c(cc1CN(Cc1cc(C#N)cc(C(F)(F)F)c1)c1ccn(C)n1)CCCC2 [Example 45, trans-4-{[N-(3-{[N′-(3-cyano-5-trifluoromethylbenzyl)-N′-(1-methyl-1H-pyrazol-3-yl)amino]methyl}-5,6,7,8-tetrahydronaphthalen-2-yl)-N-ethylamino]methyl}cyclohexanecarboxylic acid hydrochloride] |
| 6.41 | CCN(CC1CCCC1)c1cc2c(cc1CN(Cc1cc(C(F)(F)F)cc(C(F)(F)F)c1)c1noc(C)n1)CCC2 [Example 46, N-[3,5-bis(trifluoromethyl)benzyl]-N-[6-(N′-cyclopentylmethyl-N′-ethylamino)indan-5-ylmethyl]-(5-methyl-[1,2,4]oxadiazol-3-yl)amine hydrochloride] |
